Data set [1] in a line: Cytotoxicity, SRB method, HepG2. The format is cell-based, human. Conditions: human, HepG2 (hepatocellular) cells. As for the experimental part:
(§1) Huh-7 (hepatoma), MCF-7 (human breast), KB (oral epithelial), Hela (cervical), H460 (lung), A-549 (lung), and HepG2 (hepatocellular) cancer cell lines (provided by Shanghai Cell Bank) were maintained in RPMI 1640 at 37 ℃, supplemented with 10% FBS. Cytotoxicity was determined by the SRB method, with 5-fluorouracil (5-FU) as a positive control. The IC50 value was calculated using the GraphPad prism program.
(The SRB assay estimates cell density from bound dye.)

Data set [2] can be described thus: Cytotoxicity, SRB method, KB. The data set is classed as cell-based, human. Conditions: human, KB (oral epithelial) cells. As for the experimental part:
as §1

Data set [3] can be described thus: Cytotoxicity, SRB method, Huh-7. The data set is classed as cell-based, human. Conditions: human, Huh-7 (hepatoma) cells. Here is the method: as §1
The next data set has as its system STAT3. Briefly: Western blot, STAT3 in LPS-treated macrophages. The format is cell-based. Particulars: LPS-treated RAW264.7 cells, Fig. 5. As for the experimental part: (§2) Western blot analysis was performed to observe the activities of limonin 2 on NF-κB P65, JAK, STAT, IKBα, IKKα, iNOS and eNOS protein levels. Macrophages were dispersed in 6 well plates for 24 h. After incubation, the cells were processed by HFPS and treated with LPS for 24 h. After treatment, cells were harvested and lysed. Western blot analysis was based on the methods described previously ([24]).
(§3) To study the effect of limonin 2 on the STAT signaling cascades of LPS-treated macrophage, the levels of JAK2 and STAT3 was measured ([45]).

The subject of another data set is IKKα. Briefly: Western blot, IKKα in LPS-treated macrophages. Particulars: Fig. 4. The format is cell-based. As for the experimental part:
as §2
(§4) The NF-κB signaling cascade plays an important role in the adjustment of inflammation ([43], [44]). The expression of NF-κB P65, IKB, and IKKα were measured by Western blot to investigate the anti-inflammatory mechanism of limonin 2. […] Limonin 2 inhibited the phosphorylation and degradation of IKBα (Fig. 4A, D and E) and IKKα (Fig. 4A, F and G).
Background: Immunoblotting shows a protein as a band on a membrane.

The nature of data set [4]: Cytotoxicity, SRB method, MCF-7. The format is cell-based, human. Particulars: human, MCF-7 (human breast) cells. As for the experimental part:
as §1

The subject of the next data set is IKBα. Put plainly: Western blot, IKBα in LPS-treated macrophages. The format is cell-based. Conditions: Fig. 4. As for the experimental part: as §2, §4
A further data set relates to iNOS. Briefly: Western blot, iNOS in LPS-treated macrophages. The data set is classed as cell-based. Particulars: Fig. 6. As for the experimental part:
as §2
(§5) To study the effect of limonin 2 on eNOS signaling cascade on LPS treated macrophages ([46]), the level of eNOS was measured. The upregulation of iNOS expression in LPS-treated macrophage was observed (Fig. 6A and B). Compound 2 inhibited the expression of iNOS stimulated by LPS in macrophage. At the same time, downregulation of eNOS protein expression was also found in LPS-stimulated macrophages (Fig. 6A and C).

A further data set relates to JAK2. Briefly: Western blot, JAK2 in LPS-treated macrophages. The data set is classed as cell-based. Conditions: LPS-treated RAW264.7 cells, Fig. 5. As for the experimental part:
as §2, §3

The nature of data set [5]: Cytotoxicity, SRB method, A549. The format is cell-based, human. Conditions: human, A-549 (lung) cells. As for the experimental part: as §1
In another data set the test system is IL-6. Briefly: IL-6 production in LPS-induced macrophages, ELISA. The data set is classed as cell-based. Particulars: compound 2 at 2.3 and 9.2 μmol/L, LPS 1 μg/mL, 24 h, Fig. 3C. Here is the method: (§6) After 8 h of pre-incubation under 5% CO2 at 37°C, limonin 2 was added to the well plate, respectively, for 12 h. Then the cell of administration group and model group were induced with LPS (2 µg/mL) and the control group was treated with DMSO as contrast. The cell supernatants of samples were collected to detect the content of IL-6 and TNF-α by ELISA according to manufacturer protocol. And the normal range of IL-6 and TNF-αELISA kits is 3.75–120 pg/mL and 20–640 pg/mL, respectively.
(§7) Fig. 3 Effects of compound 2 on the production of TNF-α, NO and IL-6 in LPS-induced macrophages. The macrophages were incubated with LPS (1 μg/mL) and treated with compound 2 (2.3 and 9.2 μmol/L) for 24 h. Indomethacin (INM) was used as the positive control. (A) The levels of TNF-α, (B) NO, and (C) IL-6 in the supernatant were assayed using ELISA kits. All values given are the mean ± SEM. *P <0.05, **P <0.01 compared with the LPS group.
On the technique in general: ELISA stands for enzyme-linked immunosorbent assay.

In data set [6] the test system is LPS-induced NO production in RAW264.7 cells. Briefly: LPS-induced NO production in RAW264.7 cells (Griess reaction). The data set is classed as cell-based. Here is the method: The inhibitory activities of compounds 1–16 on LPS stimulated macrophages was determined by Griess reaction. The NO content was detected by the NO kit according to the protocol described earlier ([23]). RAW264.7 cells obtained from the China Center for Cultivated Studies (Shanghai, China) were maintained in DMEM containing 10% FBS, and under 5% CO2 at 37°C. Briefly, the cells were seeded in a 96-well plate (1 × 10^5 cells/well), after 8 h of pre-incubation under 5% CO2 at 37°C, compounds 1–16 were added to the well plate, respectively, for 12 h. […] The supernatant of the cell culture were collected 24 h later.

A further data set concerns TNF-α. Briefly: TNF-α production in LPS-induced macrophages, ELISA. The format is cell-based. Particulars: compound 2 at 2.3 and 9.2 μmol/L, LPS 1 μg/mL, 24 h, Fig. 3A. As for the experimental part:
as §6, §7

The test system of the next data set is eNOS. Put plainly: Western blot, eNOS in LPS-treated macrophages. The data set is classed as cell-based. Conditions: LPS-stimulated macrophages, Fig. 6. As for the experimental part: as §2, §5
Data set [7] is described as follows: Cytotoxicity, SRB method, Hela. The data set is classed as cell-based, human. Conditions: human, Hela (cervical) cells. As for the experimental part:
as §1

A short description of data set [8]: Cytotoxicity, SRB method, H460. The format is cell-based, human. Particulars: human, H460 (lung) cells. Here is the method:
as §1

The next data set concerns NF-κB p-P65. Briefly: Western blot, NF-κB p-P65 in LPS-treated macrophages. Conditions: Fig. 4. The data set is classed as cell-based. As for the experimental part:
as §2, §4

For another data set, the system named is RAW264.7 cells. Put plainly: RAW264.7 cell viability, SRB assay. The data set is classed as cell-based. As for the experimental part: The cytotoxicity of limonin 2 to RAW264.7 cells was detected by SRB assay. […] Therefore, compound 2 of 0–20 μm was used in subsequent experiments to avoid the influence of cytotoxic and anti-inflammatory effect detection.
Fig. 2 Effect of compound 2 on RAW264.7 cells viability. RAW264.7 cells were treated by assigned concentration of compound 2 or DMSO for 24 h. The data are expressed as the mean ± SEM (n = 3). The cells viability (%) = (ODcompound 2 – ODDMSO)/ODDMSO ×100. *P < 0.05,**P < 0.01 compared with control cells treated by DMSO. Statistical differences were analyzed by unpaired t-test.

The structures appear in SMILES notation. Values joined by “and” are separate entries in the source; they are usually repeats but may differ in a detail not shown here. Equal entries are not always repeated.

What is called IC50 is the concentration at which inhibition is half-maximal. With `CCC(=O)OC1C2(O)C(OC(=O)C=CC(C)C)C3(C)CC24OC2(C)OC15C1CC(=O)OC(C6=CC(O)OC6=O)C1(C)CCC5(O2)C4(C)C3CC(=O)OC` (centres unmarked) [Compound 2, Chukrasin F], the IC50 in data set [1] was determined as 69.4 ± 10.6 µM; in data set [2], 39.2 ± 2.17 µM; in data set [3], 72.1 ± 13.5 µM; in [4], 23.4 ± 5.81 µM; in [5], 54.7 ± 10.1 µM; in data set [6] (Mus musculus, RAW264.7 cells, LPS 2 µg/mL, supernatant after 24 h, read-out: IC50, inhibitory activity on LPS-induced NO production in RAW264.7 cells) it was 4.58 ± 0.72 µM. Further, the IC50 in data set [7] amounted to 33.2 ± 8.41 µM; in data set [8] it was 60.8 ± 6.96 µM. Besides, the “expression level of STAT3 (in words)” value in the data set with STAT3 is “notably reduced”. Also, the “phosphorylation and degradation of IKKα (in words)” value in the data set on IKKα was “inhibited”. Moreover, the “phosphorylation and degradation of IKBα (in words)” value in the data set on IKBα was “inhibited”. In addition, the “expression of iNOS stimulated by LPS (in words)” value in the data set with iNOS is reported as “inhibited”. For the same molecule, in the data set with JAK2, the “expression level of JAK2 (in words)” value is given as “notably reduced”. For the same molecule, in the data set on IL-6, the “production of IL-6 in LPS-treated macrophages (in words)” value was “notably inhibited”. In data set [6] (compound 2 at 2.3 and 9.2 μmol/L, LPS 1 μg/mL, 24 h, Fig. 3B), the “production of NO in LPS-treated macrophages (in words)” value is listed as “notably inhibited”. For the same molecule, in the data set on TNF-α, the “production of TNF-α in LPS-treated macrophages (in words)” value is on record as “notably inhibited”. Moreover, the “eNOS protein expression (in words)” value with eNOS was “completely restored”. Moreover, the “expression of NF-κB p-P65 (in words)” value in the data set on NF-κB p-P65 is “downregulates”. Besides, the “viability of RAW264.7 cells (in words)” value in the data set with RAW264.7 cells (compound 2 at 0–20 μm, within 24 h) is listed as “not notably affected”. The “relative survival rate of RAW264.7 cells” value in the data set on RAW264.7 cells (limonin 2 at 5 ~ 200 μM (seven rising concentrations, not listed singly), 24 h, SRB) is 100.7% and 96.3% and 93.9% and 88.0% and 76.4% and 64.4% and 56.7%.

These data come from article PMC10392864, “Chukrasia tabularis limonoid plays anti-inflammatory role by regulating NF-κB signaling pathway in lipopolysaccharide-induced macrophages” (Food & Nutrition Research, 2023).
